Source: ChEMBL document CHEMBL4295262, “Evaluation of the utility of stem-cell derived cardiomyocytes for drug proarrhythmic potential” (2019)

Experiments:
[1] = (§1) Electrical activity assay on cell lines treated with a given drug. DMSO was used as a vehicle and a control, unblinded dofetilide was used as a control.; assay type: cell-based; parameters: APDc: unit not given here; settings: human, ipsc-cm
[2] = as §1; assay type: ADME, cell-based; parameters: FPDc: unit not given here; settings: human, ipsc-cm
[3] = as §1; settings: human, ipsc-cm
[4] = as §1; assay type: ADME, cell-based; settings: human, ipsc-cm, 0.001 µM; concentration (um) 0.001 uM
[5] = as §1; settings: human, ipsc-cm, 1 µM
[6] = as §1; assay type: ADME, cell-based; settings: human, ipsc-cm, 0.01 µM; concentration (um) 0.01 uM
[7] = as §1; assay type: ADME, cell-based; parameters: FPDc: unit not given here; settings: human, ipsc-cm; remark: listed apart in the source
[8] = as §1; settings: human, ipsc-cm; remark: listed apart in the source
[9] = 0.09507 µM, concentration (um) 0.0950736 uM
[10] = 0.3004 µM, concentration (um) 0.300433 uM
[11] = 0.9494 µM, concentration (um) 0.949367 uM
[12] = 0.003169 µM, concentration (um) 0.00316912 uM
[13] = 0.01001 µM, concentration (um) 0.0100144 uM
[14] = 0.03165 µM, concentration (um) 0.0316456 uM
[15] = 0.1 µM, concentration (um) 0.1 uM

Compound: CN(C)CCCN1c2ccccc2Sc2ccc(Cl)cc21 [CHLORPROMAZINE]
- APDc [1, 9]: 69.32
- FPD measurement [1, 9]: 69.32 FPDc
- APDc [1, 10]: 63.65
- FPD measurement [1, 10]: 63.65 FPDc
- APDc [1, 11]: 55.94
- FPD measurement [1, 11]: 55.94 FPDc
- APDc ([1]; 3 µM, concentration (um) 3 uM): 58.51
- FPD measurement ([1]; 3 µM, concentration (um) 3 uM): 58.51 FPDc
- FPDc [2, 9]: 0.04224
- FPDc [2, 10]: 0.04702
- FPDc [2, 11]: 0.04411
- FPD measurement ([2]; 3 µM, concentration (um) 3 uM): More Than Half The Wells Had A Quiescence Event Or Fpdc Readings Of 0
- FPDc ([2]; 3 µM, concentration (um) 3 uM): More Than Half The Wells Had A Quiescence Event Or Fpdc Readings Of 0
- FPD measurement ([3]; 0.09507 µM): 53.9 FPDc
- FPDc ([3]; 0.09507 µM): 53.9
- FPD measurement ([3]; 0.3004 µM): 52.05 FPDc
- FPDc ([3]; 0.3004 µM): 52.05
- FPD measurement ([3]; 0.9494 µM): 50.49 FPDc
- FPDc ([3]; 0.9494 µM): 50.49
- FPD measurement ([3]; 3 µM): 44.91 FPDc
- FPDc ([3]; 3 µM): 44.91

Compound: C[S+](C)[O-] [DIMETHYL SULFOXIDE]
- FPD measurement [4]: 49.93 FPDc
- FPDc [4]: 72 Values Out Of 72 Were Excluded Due To Quiescence Or 0 Fpdc
- FPDc [5]: 70.37
- FPDc ([2]; 0.001 µM, concentration (um) 0.001 uM): 0.03393
- FPD measurement ([3]; 0.001 µM): 55.35 FPDc
- FPDc ([3]; 0.001 µM): 55.35
- FPD measurement [6]: 25 Values Out Of 25 Were Excluded Due To Quiescence Or 0 Apdc
- FPDc [6]: 20.63
- FPDc ([7]; 0.01 µM, concentration (um) 0.01 uM): 50.28

Compound: CCOC(=O)N1CCC(=C2c3ccc(Cl)cc3CCc3cccnc32)CC1 [LORATADINE]
- FPDc ([2]; 0.0009507 µM, concentration (um) 0.000950736 uM): 0.02441
- FPDc ([2]; 0.003004 µM, concentration (um) 0.00300433 uM): 0.02167
- FPDc ([2]; 0.009494 µM, concentration (um) 0.00949367 uM): 0.02089
- FPDc ([2]; 0.03 µM, concentration (um) 0.03 uM): 0.02123
- FPD measurement ([3]; 0.0009507 µM): 54.17 FPDc
- FPDc ([3]; 0.0009507 µM): 54.17
- FPD measurement ([3]; 0.003004 µM): 54.08 FPDc
- FPDc ([3]; 0.003004 µM): 54.08
- FPD measurement ([3]; 0.009494 µM): 55.38 FPDc
- FPDc ([3]; 0.009494 µM): 55.38
- FPD measurement ([3]; 0.03 µM): 55.57 FPDc
- FPDc ([3]; 0.03 µM): 55.57
- FPD measurement ([8]; 0.0009507 µM): 1 Values Out Of 1 Were Excluded Due To Quiescence Or 0 Fpdc
- FPDc ([8]; 0.0009507 µM): 1 Values Out Of 1 Were Excluded Due To Quiescence Or 0 Fpdc
- FPD measurement ([8]; 0.003004 µM): 1 Values Out Of 1 Were Excluded Due To Quiescence Or 0 Fpdc
- FPDc ([8]; 0.003004 µM): 1 Values Out Of 1 Were Excluded Due To Quiescence Or 0 Fpdc
- FPD measurement ([8]; 0.009494 µM): 1 Values Out Of 1 Were Excluded Due To Quiescence Or 0 Fpdc
- FPDc ([8]; 0.009494 µM): 1 Values Out Of 1 Were Excluded Due To Quiescence Or 0 Fpdc
- FPD measurement ([8]; 0.03 µM): 1 Values Out Of 1 Were Excluded Due To Quiescence Or 0 Fpdc
- FPDc ([8]; 0.03 µM): 1 Values Out Of 1 Were Excluded Due To Quiescence Or 0 Fpdc

Compound: Cc1nc2n(c(=O)c1CCN1CCC(c3noc4cc(F)ccc34)CC1)CCCC2 [RISPERIDONE]
- FPDc [2, 12]: 0.03911
- FPDc [2, 13]: 0.03923
- FPDc [2, 14]: 0.03847
- FPDc [2, 15]: 0.03663
- FPD measurement ([3]; 0.003169 µM): 55.22 FPDc
- FPDc ([3]; 0.003169 µM): 55.22
- FPD measurement ([3]; 0.01001 µM): 55.61 FPDc
- FPDc ([3]; 0.01001 µM): 55.61
- FPD measurement ([3]; 0.03165 µM): 57.01 FPDc
- FPDc ([3]; 0.03165 µM): 57.01
- FPD measurement ([3]; 0.1 µM): 65.06 FPDc
- FPDc ([3]; 0.1 µM): 65.06
- FPD measurement [7, 12]: 5 Values Out Of 5 Were Excluded Due To Quiescence Or 0 Apdc
- FPDc [7, 12]: 54.79
- FPD measurement [7, 13]: 5 Values Out Of 5 Were Excluded Due To Quiescence Or 0 Apdc
- FPDc [7, 13]: 49.58
- FPD measurement [7, 14]: 5 Values Out Of 5 Were Excluded Due To Quiescence Or 0 Apdc
- FPDc [7, 14]: 47.1
- FPD measurement [7, 15]: 5 Values Out Of 5 Were Excluded Due To Quiescence Or 0 Apdc
- FPDc [7, 15]: 61.9
- FPD measurement ([8]; 0.003169 µM): 1 Values Out Of 1 Were Excluded Due To Quiescence Or 0 Fpdc
- FPDc ([8]; 0.003169 µM): 1 Values Out Of 1 Were Excluded Due To Quiescence Or 0 Fpdc
- FPD measurement ([8]; 0.01001 µM): 1 Values Out Of 1 Were Excluded Due To Quiescence Or 0 Fpdc
- FPDc ([8]; 0.01001 µM): 1 Values Out Of 1 Were Excluded Due To Quiescence Or 0 Fpdc
- FPD measurement ([8]; 0.03165 µM): 1 Values Out Of 1 Were Excluded Due To Quiescence Or 0 Fpdc
- FPDc ([8]; 0.03165 µM): 1 Values Out Of 1 Were Excluded Due To Quiescence Or 0 Fpdc
- FPD measurement ([8]; 0.1 µM): 1 Values Out Of 1 Were Excluded Due To Quiescence Or 0 Fpdc
- FPDc ([8]; 0.1 µM): 1 Values Out Of 1 Were Excluded Due To Quiescence Or 0 Fpdc
